Source: US20230192657A1, “1,2,4-TRIAZOLINONE CB1 INHIBITORS” (Goldfinch Bio, Inc., priority 2020, published 2023)

target: CB1 receptor (Homo sapiens, UniProt P21554); assay: CB1 cAMP Antagonist Assay (LANCE Ultra cAMP kit); type: cell-based; settings: Flp-In CHO cells stably expressing the CB1 receptor; forskolin and CP55940 agonist at EC90; cAMP FRET readout
Description: CB1 cAMP Antagonist Assay
LANCE Ultra cAMP kit (Perkin Elmer) was used to quantitate the amount of 3′,5′-cyclic adenosine monophosphate (cAMP) produced in Flp-In CHO (Invitrogen) cells stably expressing the CB1 receptor.
Forskolin was initially titrated to determine the response of the cells. The EC90 of forskolin was used for compound testing. CP55940 was titrated and used with EC90 of forskolin to determine the level of agonist stimulation. EC90 of the agonist was used for subsequent compound testing.
Forskolin (Sigma), CP55940 (Cayman Chemicals), and AM251 (MCE) were diluted in 100% DMSO, starting at 100 mM, 1 mM, and 1 mM respectively, in 3-fold serial dilutions. Test compounds were diluted in 100% DMSO starting from 10 mM, 3-fold dilutions. The cAMP assay buffer contains 1x Hank’s Buffered Saline Solution with Ca^2+ and Mg^2+ (Invitrogen), 5.3 mM HEPES (Invitrogen), 0.05% BSA, 0.5 mM IBMX (Sigma).
For all assays, cells were harvested, counted, and diluted in cAMP assay buffer to 1× 10^5 cells/mL. Only cells with viability >85% were used for the assay. Cells were seeded at 1000 cells/well in 384-well plates and 10 nL/well AM251 or test compound was added and incubated at 37° C. for 10 min. […] To detect the amount of cAMP produced, 5 µL of a 100x diluted stock of Eu-cAMP tracer and 5 µL of 200x diluted stock of Ulight-anti-cAMP were added to each well, and the plate incubated at 25° C. for 15 min. The FRET signal was read using an EnVision microplate reader (λex=320 nm, λem=615 nm and 665 nm).
The IC50 is determined by fitting the percentage of inhibition as a function of compound concentrations with the Hill equation, using a 4-parameter fit in either XLfit or GraphPad Prism.

CB1 receptor, sequence (P21554 whole entry): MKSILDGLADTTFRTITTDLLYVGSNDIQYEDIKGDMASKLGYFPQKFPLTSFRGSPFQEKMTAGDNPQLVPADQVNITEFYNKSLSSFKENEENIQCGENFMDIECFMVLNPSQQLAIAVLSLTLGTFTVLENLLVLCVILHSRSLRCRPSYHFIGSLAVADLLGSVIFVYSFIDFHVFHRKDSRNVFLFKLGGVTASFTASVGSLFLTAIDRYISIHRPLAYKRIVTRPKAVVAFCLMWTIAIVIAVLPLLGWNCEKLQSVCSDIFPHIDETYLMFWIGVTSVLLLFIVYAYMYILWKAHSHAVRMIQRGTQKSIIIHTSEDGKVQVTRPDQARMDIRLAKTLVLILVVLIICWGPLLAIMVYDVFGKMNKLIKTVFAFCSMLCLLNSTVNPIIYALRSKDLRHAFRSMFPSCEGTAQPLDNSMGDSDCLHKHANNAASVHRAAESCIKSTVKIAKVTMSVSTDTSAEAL

Structure (SMILES) | IC50 [nM]
Cn1c(N2CC(c3ccccc3)C(c3ccc(Cl)cc3)=N2)nn(Cc2ccc(Cl)cn2)c1=O (stereo not shown) [Compound 177] | < 100
Cn1c(N2CC(c3ccccc3)C(c3ccc(Cl)cc3)=N2)nn(Cc2ccccc2Cl)c1=O (stereo not shown) [Compound 171] | < 100
COCCn1c(N2C[C@@]3(CCc4ccccc43)C(c3ccc(Cl)cc3)=N2)nn(-c2ccc(Cl)cc2)c1=O [Compound 117] | > 5000
C[C@@H](C(=O)NCCO)n1c(N2C[C@H](c3ccccc3)C(c3ccc(Cl)cc3)=N2)nn(Cc2ccc(Cl)cc2)c1=O [Compound 184, (2S)-2-[3-[(4S)-3-(4-chlorophenyl)-4-phenyl-4,5-dihydropyrazol-1-yl]-1-[(4-chlorophenyl)methyl]-5-oxo-1,2,4-triazol-4-yl]-N-(2-hydroxyethyl)propanamide] | < 100
NC(=O)Cn1c(N2C[C@@H](c3ccccc3)C(c3ccc(Cl)cc3)=N2)nn(Cc2ccc(Cl)cc2)c1=O [Compound 106, 2-[3-[(4R)-3-(4-chlorophenyl)-4-phenyl-4,5-dihydro-1H-pyrazol-1-yl]-1-[(4-chlorophenyl)methyl]-5-oxo-4,5-dihydro-1H-1,2,4-triazol-4-yl]acetamide] | 1000 to 5000
C[C@@H](c1ccc(Cl)cc1)n1nc(N2CC(c3ccccc3)C(c3ccc(Cl)cc3)=N2)n(CC(N)=O)c1=O (stereo in doubt) [Compound 150, 2-[3-[(4S)-3-(4-chlorophenyl)-4-phenyl-4,5-dihydropyrazol-1-yl]-1-[(1S)-1-(4-chlorophenyl)ethyl]-5-oxo-1,2,4-triazol-4-yl]acetamide] | 100 to 1000
C[C@@H](C(N)=O)n1c(N2C[C@H](c3ccccc3)C(c3ccc(Cl)cc3)=N2)n[nH]c1=O [Compound 203, (2S)-2-[3-[(4S)-3-(4-chlorophenyl)-4-phenyl-4,5-dihydropyrazol-1-yl]-5-oxo-1H-1,2,4-triazol-4-yl]propanamide] | > 5000
O=C(O)CCn1c(N2C[C@]3(CCc4ccccc43)C(c3ccc(Cl)cc3)=N2)nn(Cc2ccc(Cl)cc2)c1=O [Compound 127] | > 5000
Cn1c(N2C[C@H](c3ccccc3)C(c3ccc(Cl)cc3)=N2)nn(-c2ccc(Cl)cc2)c1=O [Compound 101, 1-(4-chlorophenyl)-3-[(4S)-3-(4-chlorophenyl)-4-phenyl-4,5-dihydro-1H-pyrazol-1-yl]-4-methyl-4,5-dihydro-1H-1,2,4-triazol-5-one] | < 100
NC(=O)Cn1c(N2C[C@H](c3ccccc3)C(c3ccc(Cl)cc3)=N2)nn(-c2ccc(Cl)cc2)c1=O [Compound 111, (S)-2-(1-(4-chlorophenyl)-3-(3-(4-chlorophenyl)-4-phenyl-4,5-dihydro-1H-pyrazol-1-yl)-5-oxo-1,5-dihydro-4H-1,2,4-triazol-4-yl)acetamide] | < 100
Cn1c(N2C[C@H](c3ccccc3)C(c3ccc(Cl)cc3)=N2)nn(Cc2ccccc2)c1=O [Compound 169] | < 100
O=c1n(-c2ccc(Cl)cc2)nc(N2C[C@]3(CCc4ccccc43)C(c3ccc(Cl)cc3)=N2)n1CCO [Compound 114, 1-(4-chlorophenyl)-3-[(1R)-3-(4-chlorophenyl)-1,2,3,5-tetrahydrospiro[indene-1,4-pyrazol]-1-yl]-4-(2-hydroxyethyl)-4,5-dihydro-1H-1,2,4-triazol-5-one] | 100 to 1000
Cc1ccc(Cn2nc(N3CC(c4ccccc4)C(c4ccc(Cl)cc4)=N3)n(C)c2=O)cc1F (stereo not shown) [Compound 175] | < 100
Cn1c(N2C[C@]3(CCc4ccccc43)C(c3ccc(Cl)cc3)=N2)nn(Cc2ccc(Cl)cc2)c1=O [Compound 115, 3-[(1R)-3-(4-chlorophenyl)-1,2,3,5-tetrahydrospiro[indene-1,4-pyrazol]-1-y1]-1-[(4-chlorophenyl)methyl]-4-methyl-4,5-dihydro-1H-1,2,4-triazol-5-one] | 1000 to 5000
C[C@H](C(N)=O)n1c(N2C[C@H](c3ccccc3)C(c3ccc(Cl)cc3)=N2)nn(Cc2ccc(Cl)cc2)c1=O [Compound 174] | < 100
Cn1c(N2CC(c3ccccc3)C(c3ccc(Cl)cc3)=N2)nn(Cc2cccc(C#N)c2)c1=O (stereo not shown) [Compound 170] | < 100

Now from value to compound:

IC50 [nM] | Structure (SMILES)
< 100 | C[C@H](c1ccc(Cl)cc1)n1nc(N2C[C@H](c3ccccc3)C(c3ccc(Cl)cc3)=N2)n(CC(N)=O)c1=O [Compound 154]
100 to 1000 | Cn1c(N2CC(c3ccccc3)C(c3ccc(Cl)cc3)=N2)nn(Cc2ccc(C(N)=O)cc2)c1=O (stereo not shown) [Compound 192, 4-([3-[3-(4-chlorophenyl)-4-phenyl-4,5-dihydropyrazol-1-yl]-4-methyl-5-oxo-1,2,4-triazol-1-yl]methyl)benzamide]
> 5000 | Cn1c(N2C[C@@H](c3ccccc3)C(c3ccc(Cl)cc3)=N2)n[nH]c1=O [Compound 181]
> 5000 | C[C@@H](C(=O)NCCO)n1c(N2C[C@@H](c3ccccc3)C(c3ccc(Cl)cc3)=N2)nn(Cc2ccc(Cl)cc2)c1=O [Compound 187, (2S)-2-[3-[(4R)-3-(4-chlorophenyl)-4-phenyl-4,5-dihydropyrazol-1-yl]-1-[(4-chlorophenyl)methyl]-5-oxo-1,2,4-triazol-4-yl]-N-(2-hydroxyethyl)propanamide]
100 to 1000 | Cn1c(N2C[C@H](c3ccccc3)C(c3ccc(Cl)cc3)=N2)nn(CCc2ccc(C(N)=O)cc2)c1=O [Compound 202, 4-(2-[3-[(4S)-3-(4-chlorophenyl)-4-phenyl-4,5-dihydropyrazol-1-yl]-4-methyl-5-oxo-1,2,4-triazol-1-yl]ethyl)benzamide]
< 100 | COC(=O)c1ccc(Cn2nc(N3CC(c4ccccc4)C(c4ccc(Cl)cc4)=N3)n(C)c2=O)cc1 (stereo not shown) [Compound 168]
< 100 | C[C@@H](C(N)=O)n1c(N2C[C@H](c3ccccc3)C(c3ccc(Cl)cc3)=N2)nn(Cc2ccc(Cl)cc2)c1=O [Compound 176]
> 5000 | C[C@@H](C(N)=O)n1c(N2C[C@@H](c3ccccc3)C(c3ccc(Cl)cc3)=N2)n[nH]c1=O [Compound 209, (2S)-2-[3-[(4R)-3-(4-chlorophenyl)-4-phenyl-4,5-dihydropyrazol-1-yl]-5-oxo-1H-1,2,4-triazol-4-yl]propanamide]
100 to 1000 | NC(=O)CCn1c(N2C[C@]3(CCc4ccccc43)C(c3ccc(Cl)cc3)=N2)nn(-c2ccc(Cl)cc2)c1=O [Compound 126, 3-[1-(4-chlorophenyl)-3-[(1R)-3-(4-chlorophenyl)-1,2,3,5-tetrahydrospiro[indene-1,4-pyrazol]-1-yl]-5-oxo-4,5-dihydro-1H-1,2,4-triazol-4-yl]propanamide]
